Laboratory results taken from patent US11254686B1 (Corvus Pharmaceuticals, Inc., priority 2017, dated 2022).

How the values were obtained:
[1] = target: adenosine A2B receptor (Homo sapiens (Human), UniProt P29275); experiment: Adenosine receptor activity assay (Table 1), A2B activity; format: biochemical; conditions: for Ratio: A2A activity to A2B activity (A2A/A2B); for IC50: read-out: Ave A2B cAMP IC50
[2] = target: adenosine A2A receptor (Homo sapiens (Human), UniProt P29274); experiment: Adenosine receptor activity assay (Table 1), A2A activity; format: biochemical; conditions: read-out: Ave A2A cAMP IC50
adenosine A2A receptor, sequence (P29274 whole entry): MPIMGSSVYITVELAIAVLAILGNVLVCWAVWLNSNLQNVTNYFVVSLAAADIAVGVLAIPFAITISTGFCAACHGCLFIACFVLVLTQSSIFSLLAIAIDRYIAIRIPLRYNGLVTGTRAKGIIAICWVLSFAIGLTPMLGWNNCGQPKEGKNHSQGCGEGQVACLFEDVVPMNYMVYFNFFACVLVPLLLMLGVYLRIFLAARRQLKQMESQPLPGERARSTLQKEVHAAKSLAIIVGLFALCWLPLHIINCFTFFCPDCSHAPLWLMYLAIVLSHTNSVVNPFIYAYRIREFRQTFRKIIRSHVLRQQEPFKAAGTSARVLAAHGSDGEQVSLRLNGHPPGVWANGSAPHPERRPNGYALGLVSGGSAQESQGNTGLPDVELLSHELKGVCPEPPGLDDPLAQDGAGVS

adenosine A2B receptor, sequence (P29275 whole entry): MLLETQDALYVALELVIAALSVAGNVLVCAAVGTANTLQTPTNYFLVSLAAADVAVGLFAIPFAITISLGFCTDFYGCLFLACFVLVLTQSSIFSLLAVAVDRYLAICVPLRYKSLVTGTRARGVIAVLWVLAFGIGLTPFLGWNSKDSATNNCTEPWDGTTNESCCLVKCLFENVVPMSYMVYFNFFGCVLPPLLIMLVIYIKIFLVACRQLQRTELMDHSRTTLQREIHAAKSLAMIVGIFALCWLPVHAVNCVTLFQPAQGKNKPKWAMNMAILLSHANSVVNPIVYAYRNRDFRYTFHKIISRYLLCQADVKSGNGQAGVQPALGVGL

Row | Ratio [1] | IC50 [1] | IC50 [2] | Structure (SMILES)
1 | 33.74 | 10 to 50 nM | 100 to 500 nM | C[C@H](Nc1nc(C(=O)N2CCC2)c2sc(N)cc2n1)c1cccnc1 [Example Z203, (S)-(6-Amino-2-((1-(pyridin-3-yl)ethyl)amino)thieno[3,2-d]pyrimidin-4-yl)(azetidin-1-yl)methanone]
2 | 13.13 | 10 to 50 nM | 100 to 500 nM | C[C@H](Nc1nc(C(=O)N2CC[C@H](F)C2)c2sc(N)cc2n1)c1cccnc1 [Example Z204, (6-Amino-2-(((S)-1-(pyridin-3-yl)ethyl)amino)thieno[3,2-d]pyrimidin-4-yl)((S)-3-fluoropyrrolidin-1-yl)methanone]
3 | 27.10 | 10 to 50 nM | 100 to 500 nM | C[C@H](Nc1nc(C(=O)N2CC(O)C2)c2sc(N)cc2n1)c1ccccn1 [Example Z205, (S)-(6-Amino-2-((1-(pyridin-2-yl)ethyl)amino)thieno[3,2-d]pyrimidin-4-yl)(3-hydroxyazetidin-1-yl)methanone]
4 | 18.79 | 50 to 100 nM | > 500 nM | C[C@H](Nc1nc(C(=O)N2CC[C@@H](O)C2)c2sc(N)cc2n1)c1ccccn1 [Example Z208, (6-Amino-2-(((S)-1-(pyridin-2-yl)ethyl)amino)thieno[3,2-d]pyrimidin-4-yl)((R)-3-hydroxypyrrolidin-1-yl)methanone]
5 | 2.95 | 100 to 500 nM | 100 to 500 nM | C[C@H](Nc1nc(C(=O)NCCS(C)(=O)=O)c2sccc2n1)c1ccccn1 [Example Z215, (S)—N-(2-(Methylsulfonyl)ethyl)-2-((1-(pyridin-2-yl)ethyl)amino)thieno[3,2-d]pyrimidine-4-carboxamide]
6 | 5.70 | 10 to 50 nM | 50 to 100 nM | COCC(Nc1nc(C(=O)N2CC(OC)C2)c2sccc2n1)c1cccnc1 (centres unmarked) [Example Z217, (2-((2-Methoxy-1-(pyridin-3-yl)ethyl)amino)thieno[3,2-d]pyrimidin-4-yl)(3-methoxyazetidin-1-yl)methanone]
7 | 44.45 | 100 to 500 nM | > 500 nM | C[C@H](Nc1nc(C(=O)N2CC[C@@H](O)C2)c2sc(N)cc2n1)c1cccnc1 [Example Z220, (6-Amino-2-(((S)-1-(pyridin-3-yl)ethyl)amino)thieno[3,2-d]pyrimidin-4-yl)((R)-3-hydroxypyrrolidin-1-yl)methanone]
8 | 2.80 | > 500 nM | > 500 nM | C[C@H](Nc1nc(C(=O)NC[C@H]2CCCN2C(=O)OC(C)(C)C)c2sccc2n1)c1ccccn1 [Example Z228, tert-Butyl (R)-2-((2-(((S)-1-(pyridin-2-yl)ethyl)amino)thieno[3,2-d]pyrimidine-4-carboxamido)methyl)pyrrolidine-1-carboxylate]
9 | 7.45 | 100 to 500 nM | > 500 nM | C[C@H](Nc1nc(C(=O)NCC(C)(C)O)c2sccc2n1)c1ccccn1 [Example Z230, (S)—N-(2-Hydroxy-2-methylpropyl)-2-((1-(pyridin-2-yl)ethyl)amino)thieno[3,2-d]pyrimidine-4-carboxamide]
10 | 15.23 | 50 to 100 nM | > 500 nM | C[C@H](Nc1nc(C(=O)N2CC(O)C2)c2sc(N)cc2n1)c1cccnc1 [Example Z248, (S)-(6-Amino-2-((1-(pyridin-3-yl)ethyl)amino)thieno[3,2-d]pyrimidin-4-yl)(3-hydroxyazetidin-1-yl)methanone]
11 | 1.70 | 100 to 500 nM | 100 to 500 nM | O=C(c1nc(NCCc2ccccc2)nc2ccsc12)N1CCCC1 [Example Z258, (2-(Phenethylamino)thieno[3,2-d]pyrimidin-4-yl)(pyrrolidin-1-yl)methanone]
12 | 1.12 | > 500 nM | > 500 nM | C[C@H](Nc1nc(C(=O)N2CC[C@@H](S(C)(=O)=O)C2)c2sccc2n1)c1cccnc1 [Example Z262, ((R)-3-(Methylsulfonyl)pyrrolidin-1-yl)(2-(((S)-1-(pyridin-3-yl)ethyl)amino)thieno[3,2-d]pyrimidin-4-yl)methanone]
13 | 16.94 | 100 to 500 nM | > 500 nM | C[C@H](O)CNC(=O)c1nc(NCc2cncc(C(F)(F)F)c2)nc2ccsc12 [Example Z265, (S)—N-(2-Hydroxypropyl)-2-(((5-(trifluoromethyl)pyridin-3-yl)methyl)amino)thieno[3,2-d]pyrimidine-4-carboxamide]
14 | 34.17 | 100 to 500 nM | > 500 nM | C[C@@H](O)CNC(=O)c1nc(NCc2cncc(C(F)(F)F)c2)nc2ccsc12 [Example Z266, (R)—N-(2-Hydroxypropyl)-2-(((5-(trifluoromethyl)pyridin-3-yl)methyl)amino)thieno[3,2-d]pyrimidine-4-carboxamide]
15 | 0.36 | > 500 nM | 100 to 500 nM | C[C@H](Nc1nc(C(=O)NC(CO)c2cccnc2)c2sccc2n1)c1ccccn1 (stereo partly drawn) [Example Z269, N-(2-Hydroxy-1-(pyridin-3-yl)ethyl)-2-(((S)-1-(pyridin-2-yl)ethyl)amino)thieno[3,2-d]pyrimidine-4-carboxamide]
16 | 27.81 | 10 to 50 nM | > 500 nM | O=C(c1nc(NC(CO)c2cccnc2)nc2ccsc12)N1CCCC1 (centres unmarked) [Example Z270, (2-((2-Hydroxy-1-(pyridin-3-yl)ethyl)amino)thieno[3,2-d]pyrimidin-4-yl)(pyrrolidin-1-yl)methanone]

Continued, compound first:

Row | Structure (SMILES) | Ratio [1] | IC50 [1] | IC50 [2]
17 | C[C@@H]1CCN(C(=O)c2nc(N[C@@H](C)c3ccccn3)nc3cc(N)sc23)C1 [Example Z206, (6-Amino-2-(((S)-1-(pyridin-2-yl)ethyl)amino)thieno[3,2-d]pyrimidin-4-yl)((R)-3-methylpyrrolidin-1-yl)methanone] | 8.53 | 10 to 50 nM | 100 to 500 nM
18 | CNc1cc2nc(N[C@@H](C)c3ccccn3)nc(C(=O)N3CC[C@@H](C)C3)c2s1 [Example Z207, (6-(Methylamino)-2-(((S)-1-(pyridin-2-yl)ethyl)amino)thieno[3,2-d]pyrimidin-4-yl)((R)-3-methylpyrrolidin-1-yl)methanone] | 14.35 | 10 to 50 nM | 100 to 500 nM
19 | C[C@H](Nc1nc(C(=O)NCCO)c2sc(N)cc2n1)c1ccccn1 [Example Z209, (S)-6-Amino-N-(2-hydroxyethyl)-2-((1-(pyridin-2-yl)ethyl)amino)thieno[3,2-d]pyrimidine-4-carboxamide] | 30.22 | 10 to 50 nM | > 500 nM
20 | CCc1cc2nc(N[C@@H](C)c3cccnc3)nc(C(=O)N3CCCC3)c2s1 [Example Z214, (S)-(6-Ethyl-2-((1-(pyridin-3-yl)ethyl)amino)thieno[3,2-d]pyrimidin-4-yl)(pyrrolidin-1-yl)methanone] | 6.84 | 100 to 500 nM | > 500 nM
21 | COCC(Nc1nc(C(=O)NC2COC2)c2sccc2n1)c1cccnc1 (centres unmarked) [Example Z216, 2-((2-Methoxy-1-(pyridin-3-yl)ethyl)amino)-N-(oxetan-3-yl)thieno[3,2-d]pyrimidine-4-carboxamide] | 5.35 | 10 to 50 nM | 100 to 500 nM
22 | COCC(Nc1nc(C(=O)N[C@H]2C[C@@H](O)C2)c2sccc2n1)c1cccnc1 (some centres unmarked) [Example Z218, N-((1s,3s)-3-Hydroxycyclobutyl)-2-((2-methoxy-1-(pyridin-3-yl)ethyl)amino)thieno[3,2-d]pyrimidine-4-carboxamide] | 8.99 | 10 to 50 nM | 100 to 500 nM
23 | C[C@H](Nc1nc(C(=O)NCC2CCOCC2)c2sccc2n1)c1ccccn1 [Example Z227, (S)-2-((1-(Pyridin-2-yl)ethyl)amino)-N-((tetrahydro-2H-pyran-4-yl)methyl)thieno[3,2-d]pyrimidine-4-carboxamide] | 4.59 | 10 to 50 nM | 100 to 500 nM
24 | CN(C(=O)OC(C)(C)C)C1CN(C(=O)c2nc(NCc3cncc(F)c3)nc3ccsc23)C1 [Example Z235, tert-Butyl (1-(2-(((5-fluoropyridin-3-yl)methyl)amino)thieno[3,2-d]pyrimidine-4-carbonyl)azetidin-3-yl)(methyl)carbamate] | 2.57 | 50 to 100 nM | 100 to 500 nM
25 | CC(C)(C)OC(=O)N[C@H]1CCN(C(=O)c2nc(NCc3cncc(F)c3)nc3ccsc23)C1 [Example Z245, tert-Butyl (S)-(1-(2-(((5-fluoropyridin-3-yl)methyl)amino)thieno[3,2-d]pyrimidine-4-carbonyl)pyrrolidin-3-yl)carbamate] | 1.87 | 50 to 100 nM | 100 to 500 nM
26 | C[C@H](Nc1nc(C(=O)N2CC[C@@H](NC(=O)OC(C)(C)C)C2)c2sccc2n1)c1ccccn1 [Example Z246, tert-Butyl ((R)-1-(2-(((S)-1-(pyridin-2-yl)ethyl)amino)thieno[3,2-d]pyrimidine-4-carbonyl)pyrrolidin-3-yl)carbamate] |  | 10 to 50 nM | 100 to 500 nM
27 | O=C(c1nc(NCc2cncc(C(F)(F)F)c2)nc2ccsc12)N1CCC1 [Example Z257, Azetidin-1-yl(2-(((5-(trifluoromethyl)pyridin-3-yl)methyl)amino)thieno[3,2-d]pyrimidin-4-yl)methanone] | 9.16 | 50 to 100 nM | > 500 nM
28 | CS(=O)(=O)[C@@H]1CCN(C(=O)c2nc(NCc3cncc(F)c3)nc3ccsc23)C1 [Example Z261, (R)-(2-(((5-Fluoropyridin-3-yl)methyl)amino)thieno[3,2-d]pyrimidin-4-yl)(3-(methylsulfonyl)pyrrolidin-1-yl)methanone] | 10.23 | 100 to 500 nM | > 500 nM
29 | O=C(c1nc(NCc2cncc(C(F)(F)F)c2)nc2ccsc12)N1CC[C@H](O)C1 [Example Z264, (S)-(3-Hydroxypyrrolidin-1-yl)(2-(((5-(trifluoromethyl)pyridin-3-yl)methyl)amino)thieno[3,2-d]pyrimidin-4-yl)methanone] | 13.34 | > 500 nM | > 500 nM
